Test system: EAE induced in the CSJL/FI strain of mice
Assay: EAE model in CSJL/FI mice (MSCH/CFA-induced), clinical scoring
Type: in vivo
Experimental: EAE induced in the CSJL/FI strain of mice was selected to test the compounds mentioned above, as it is an established EAE model to test the efficacy of candidate molecules for MS treatment.
Disease was induced in all mice by the injection of the encephalitogenic emulsion (MSCH/CFA). Treatment was started from day 1 of the study or at disease onset and was administered every day, orally (BID), from onset of the study.
Healthy, nulliparous, non-pregnant female mice of the CSJL/FI strain obtained from Harlan Animal Breeding Center, Jerusalem, Israel were used in the study. The animals weighed about 17-20 g on arrival, and were approximately 9 weeks of age at initiation of the study. Overtly healthy animals were assigned to study groups arbitrarily before treatment commenced.
The mice were allocated to the following 8 groups of 10 mice each:
Treatments in all groups were administered orally.
The emulsion was made from equal parts of oil (4 mL CFA containing 1.0 mg/ml MT) and liquid portions ([…] MSCH/2.5 mL PBS) in two syringes connected to each other with a Leur lock. The concentration of MSCH in emulsion is 40 mg/mL.
The emulsion was transferred to an insulin syringe before injection. 0.05 ml was injected into the left foot-pad of each mouse.
104 μL Pertussis toxin (200 μg/ml) was added to 25.87 ml PBS to yield 800 ng/ml. The pertussis toxin was administered intravenously on the day of the encephalitogen injection and 48 hours later (160.0 ng/0.2 ml/mouse×2=320 ng/mouse).
Laquinimod was diluted in DDW water to yield 0.1 mg/ml. The solution was stored in an amber colored bottle at 2 to 8° C. The 0.1 mg/ml laquinimod was administered orally, once, daily from the initiation of the study until study termination (Day 23).
Compounds B and C were dissolved in 5% Dextrose to concentrations of 2.5, 5.0 and 10 mg/ml for dose levels of 25, 50 and 100 mg/kg respectively. Test samples were freshly prepared. The 2.5, 5.0 and 10 mg/ml concentrations of Compounds B and C were administered orally, twice daily (BID) from initiation of study until study termination (Day 23) to groups
Scoring of EAE clinical signs were initiated from the 10th day post-EAE induction and were continued daily. The clinical signs were recorded on observation cards according to a grading system described in the table below.
All mice having scores of 1 and above were considered sick.
Animals with a score of 4 for more than two days were given a score of 5 and sacrificed for humane reasons. For calculation purposes, the score (5) of animals that are sacrificed or died will be carried forward (LOCF).
The number of sick animals in each group was summed.
The incidence of disease was calculated as
The percent inhibition according to incidence was calculated as: […]
The number of dead or moribund animals in each group was summed.
The mortality of disease was calculated as
The percent inhibition according to mortality was calculated as
The mean delay in onset of disease expressed in days is calculated by subtracting the mean onset of disease in control group from test group.
The mean maximal score (MMS) of each group was calculated as
The percent inhibition according to MMS was calculated as
The daily scores of each mouse in the test group was summed and the individual mean daily score (IMS) was calculated as
The mean group score (GMS) was calculated as
The percent inhibition was calculated as
This example was performed in the same manner as example 3 with the following groups:
Compound A was prepared for administration by mixing in 0.5% methyl cellulose (0.5% MC) to concentrations of 2.5, 5.0 and 10 mg/ml for dose levels of 25, 50 and 100 mg/kg respectively. The samples were vortexed and sonicated until a clear solution was obtained.
The 2.5, 5.0 and 10 mg/ml concentrations of Compound A were administered orally, twice daily (BID) from initiation of study until study termination (Day 23) at a volume dose of 0.2 ml/mouse.
Compound B was prepared for administration as in Example 3. […]

[1] = Example 3, all dose levels (25, 50, 100 mg/kg BID oral) in 5% dextrose
[2] = Example 3, 1 mg/kg QD oral, Day 0 to 22, percent inhibition vs 5% dextrose negative control

With C#CCN1CCN(c2nc3ccc(OC(F)(F)F)cc3s2)CC1 [Compound A, 2-(4-(prop-2-ynyl)piperazin-1-yl)-6-(trifluoromethoxy)benzo[d]thiazole] the “protection from disease onset and severity (in words)” value (Example 4, 25, 50 and 100 mg/kg BID oral in 0.5% methyl cellulose, all doses tested) was “almost complete protection” and the “efficacy compared with Compound B” value (Example 4, Compound A 25-100 mg/kg BID vs Compound B 15-25 mg/kg BID, oral) was “better than Compound B”.
C#CCNCc1nc2ccc(OC(F)(F)F)cc2s1 [Compound B, N-((6-(trifluoromethoxy)benzo[d]thiazol-2-yl)methyl)prop-2-yn-1-amine] was tested, and the mortality (Example 3, 25 mg/kg BID oral) was “no mortality”, the “activity based on GMS (EAE inhibition)” value (Example 3, 25 mg/kg BID oral in 5% dextrose, Day 0 to 22) was 55.9% and the “activity based on GMS (EAE inhibition)” value (Example 3, 100 mg/kg BID oral in 5% dextrose, Day 0 to 22) was 56.4%. For the same compound, the “activity in EAE (in words)” value [1] was “some activity” and the “activity in EAE (in words)” value (Example 4, 15 and 25 mg/kg BID oral, Day 0 to 22) was “moderate activity”.
In the case of C#CCN(C)Cc1nc2ccc(OC(F)(F)F)cc2s1 [Compound C, N-methyl-N-((6-(trifluoromethoxy)benzo[d]thiazol-2-yl)methyl)prop-2-yn-1-amine], the “activity in EAE (in words)” value [1] is reported as “some activity”.
In the case of CCN(C(=O)c1c(O)c2c(Cl)cccc2n(C)c1=O)c1ccccc1 [laquinimod, reference compound], the “activity according to GMS (group mean score)” value [2] is reported as 96.7%, the “activity according to MMS (mean maximal score)” value [2] is reported as 93.5% and the “activity according to incidence” value [2] is reported as 80%.

Source: US8759382B2, “Propargyl-trifluoromethoxy-aminobenzothiazole derivatives, their preparation and use” (Teva Pharmaceutical Industries Ltd., priority 2010, dated 2014)
